# In patent US20220002283A1 (Mylan Laboratories Limited, priority 2019, published 2022):
# Key:
# [1] = Solid state stability, PXRD; assay type: physicochemical; design: key: X: crystalline; S: stable
# Protocol: Thus, the X-ray diffraction patterns of the co-crystals of provided herein were measured on a PANalytical X'PertPRO Powder X-ray diffractometer equipped with goniometer of θ/θ configuration and X'celerator detector. The Cu-anode X-ray tube was operated at 45 kV and 40 mA. The experiments were conducted over the 2θ range of 2.0°-50.0°, 0.030° step size and 189.865 time per step (seconds) and all the co-crystals were characterized with above mentioned method.
# (§1) The samples were analyzed by PXRD, assay and related substances by HPLC.
# [2] = Solid state stability, HPLC meloxicam co-crystal assay; assay type: physicochemical; conditions: for A %: Co-former Assay % / M %: Meloxicam Assay %: samples as per Examples 1, 2, 3
# Protocol: • Instrumentation: Waters HPLC system having 2695 model pump having UV/PDA detector with Empower chromatography software or its equivalent. • Column: (A) Unison UK C18 column; (B) YMC Trait C18 EXRS Column, 250×4.6 mm, 5.0 micron; (C) Water Atlantis T3, 250×4.6 mm, 5 micron. • Mobile Phase: (A) methanol-acetonitrile-dipotassium phosphate buffer; or (B) acetonitrile-Sodium sulfate buffer solution • Detection wavelength: 210 nm and 360 nm
# as §1
# [3] = Solid state stability, physical and chemical (PXRD and HPLC), overall finding; conditions: 40° C./75% RH and 25° C./60% RH, three months
# Protocol: as §1
# [4] = Solid state stability, impurities by HPLC; assay type: physicochemical
# Protocol: A Zorbax Eclipse XDB C18 column was used with the mobile phase of methanol-acetonitrile-10 mM phosphate buffer solution at the detection wavelength of 350 nm and 260 nm. • Instrumentation: Waters HPLC system having 2695 model pump having UV/PDA detector with Empower chromatography software or its equivalent. • Chemicals: Dipotassium hydrogen phosphate, orthophosphoric acid, acetonitrile, water, sodium hydroxide, methanol. • Column: Zorbax Eclipse XDB C18 column, 250×4.6 mm, 5 μm. • Elution: Gradient. • Flow rate: 0.8 mL/min.
# as §1
# [5] = cited from earlier work
# [6] = 25° C./60% RH, 1 mo., samples as per Example 7 or 17
# [7] = 25° C./60% RH, 2 mo., samples as per Example 7 or 17
# [8] = 25° C./60% RH, 3 mo., samples as per Example 7 or 17
# [9] = 25° C./60% RH, Initial, samples as per Example 7 or 17
# [10] = 40° C./75% RH, 1 mo., samples as per Example 7, 17 or 14
# [11] = 40° C./75% RH, 2 mo., samples as per Example 7, 17 or 14
# [12] = 40° C./75% RH, 3 mo., samples as per Example 7 or 17
# [13] = 40° C./75% RH, Initial, samples as per Example 7, 17 or 14
structure (smiles),measurement,setting,value
Cc1cnc(NC(=O)C2=C(O)c3ccccc3S(=O)(=O)N2C)s1.O=C(O)c1ccc2ccccc2c1O,PXRD,[1]; [6],S
same,PXRD,"[1]; 25° C./60% RH, 1 mo., samples as per Examples 1, 2, 3",S
same,PXRD,[1]; [7],S
same,PXRD,"[1]; 25° C./60% RH, 2 mo., samples as per Examples 1, 2, 3",S
same,PXRD,[1]; [8],S
same,PXRD,"[1]; 25° C./60% RH, 3 mo., samples as per Examples 1, 2, 3",S
same,PXRD,[1]; [9],X
same,PXRD,"[1]; 25° C./60% RH, Initial, samples as per Examples 1, 2, 3",X
same,PXRD,[1]; [10],S
same,PXRD,"[1]; 40° C./75% RH, 1 mo., samples as per Examples 1, 2, 3",S
same,PXRD,[1]; [11],S
same,PXRD,"[1]; 40° C./75% RH, 2 mo., samples as per Examples 1, 2, 3",S
same,PXRD,[1]; [12],S
same,PXRD,"[1]; 40° C./75% RH, 3 mo., samples as per Examples 1, 2, 3",S
same,PXRD,[1]; [13],X
same,PXRD,"[1]; 40° C./75% RH, Initial, samples as per Examples 1, 2, 3",X
same,Assay (% by HPLC) M % (Meloxicam Assay %),[2]; [6],65.0%
same,A %: Co-former Assay %,"[2]; 25° C./60% RH, 1 mo.",34.5%
same,M %: Meloxicam Assay %,"[2]; 25° C./60% RH, 1 mo.",64.7%
same,Assay (% by HPLC) M % (Meloxicam Assay %),[2]; [7],63.5%
same,A %: Co-former Assay %,"[2]; 25° C./60% RH, 2 mo.",35.0%
same,M %: Meloxicam Assay %,"[2]; 25° C./60% RH, 2 mo.",65.0%
same,Assay (% by HPLC) M % (Meloxicam Assay %),[2]; [8],64.3%
same,A %: Co-former Assay %,"[2]; 25° C./60% RH, 3 mo.",34.0%
same,M %: Meloxicam Assay %,"[2]; 25° C./60% RH, 3 mo.",64.6%
same,Assay (% by HPLC) M % (Meloxicam Assay %),[2]; [9],65.1%
same,A %: Co-former Assay %,"[2]; 25° C./60% RH, Initial",34.2%
same,M %: Meloxicam Assay %,"[2]; 25° C./60% RH, Initial",64.3%
same,Assay (% by HPLC) M % (Meloxicam Assay %),[2]; [10],64.7%
same,A %: Co-former Assay %,"[2]; 40° C./75% RH, 1 mo.",34.9%
same,M %: Meloxicam Assay %,"[2]; 40° C./75% RH, 1 mo.",64.9%
same,Assay (% by HPLC) M % (Meloxicam Assay %),[2]; [11],64.0%
same,M %: Meloxicam Assay %,"[2]; 40° C./75% RH, 2 mo.",64.8%
same,Assay (% by HPLC) M % (Meloxicam Assay %),[2]; [12],64.4%
same,A %: Co-former Assay %,"[2]; 40° C./75% RH, 3 mo.",34.2%
same,M %: Meloxicam Assay %,"[2]; 40° C./75% RH, 3 mo.",65.5%
same,Assay (% by HPLC) M % (Meloxicam Assay %),[2]; [13],65.2%
same,A %: Co-former Assay %,"[2]; 40° C./75% RH, Initial",34.2%
same,M %: Meloxicam Assay %,"[2]; 40° C./75% RH, Initial",64.3%
same,physical and chemical stability,[3],physically and chemically stable
same,"Impurities (% w/w, by HPLC) Methyl Meloxicam",[4]; [6],0.01 % w/w
same,"Impurities (% w/w, by HPLC) Other* (any other individual impurity)",[4]; [6],0.03 % w/w
same,"Impurities (% w/w, by HPLC) Total",[4]; [6],0.08 % w/w
same,"Impurities (% w/w, by HPLC) Methyl Meloxicam",[4]; [7],0.01 % w/w
same,"Impurities (% w/w, by HPLC) Other* (any other individual impurity)",[4]; [7],0.03 % w/w
same,"Impurities (% w/w, by HPLC) Total",[4]; [7],0.13 % w/w
same,"Impurities (% w/w, by HPLC) Methyl Meloxicam",[4]; [8],0.01 % w/w
same,"Impurities (% w/w, by HPLC) Other* (any other individual impurity)",[4]; [8],0.03 % w/w
same,"Impurities (% w/w, by HPLC) Total",[4]; [8],0.08 % w/w
same,"Impurities (% w/w, by HPLC) Methyl Meloxicam",[4]; [9],0.01 % w/w
same,"Impurities (% w/w, by HPLC) Other* (any other individual impurity)",[4]; [9],0.02 % w/w
same,"Impurities (% w/w, by HPLC) Total",[4]; [9],0.05 % w/w
same,"Impurities (% w/w, by HPLC) Methyl Meloxicam",[4]; [10],0.01 % w/w
same,"Impurities (% w/w, by HPLC) Other* (any other individual impurity)",[4]; [10],0.03 % w/w
same,"Impurities (% w/w, by HPLC) Total",[4]; [10],0.09 % w/w
same,"Impurities (% w/w, by HPLC) Methyl Meloxicam",[4]; [11],0.01 % w/w
same,"Impurities (% w/w, by HPLC) Other* (any other individual impurity)",[4]; [11],0.03 % w/w
same,"Impurities (% w/w, by HPLC) Total",[4]; [11],0.13 % w/w
same,"Impurities (% w/w, by HPLC) Methyl Meloxicam",[4]; [12],0.01 % w/w
same,"Impurities (% w/w, by HPLC) Other* (any other individual impurity)",[4]; [12],0.03 % w/w
same,"Impurities (% w/w, by HPLC) Total",[4]; [12],0.10 % w/w
same,"Impurities (% w/w, by HPLC) Methyl Meloxicam",[4]; [13],0.01 % w/w
same,"Impurities (% w/w, by HPLC) Other* (any other individual impurity)",[4]; [13],0.03 % w/w
same,"Impurities (% w/w, by HPLC) Total",[4]; [13],0.06 % w/w
same,"Meloxicam Related Compounds A, B, C, and D by HPLC","[4]; any timepoint from initiation up to 3 months, 40° C./75% RH and 25° C./60% RH","^#Meloxicam Related Compounds A, B, C, and D (see Table 4) were not detectable at any timepoint from initiation up to 3 months."
O=C(O)c1ccc2ccccc2c1O [1-Hydroxy-2-naphthoic acid],pKa,physchem,1.5
O=C(O)c1ccc(O)cc1 [4-Hydroxybenzoic acid],pKa,physchem,-0.38
same,pKa (co-former),[5],4.58
O=C(O)CCc1ccccc1 [Hydrocinnamic acid],pKa,physchem,-0.46
same,pKa (co-former),[5],4.66
